{"source": "patent EP1577294A1", "about": "“S-SUBSTITUTED N-1- (HETERO)ARYL ALKYL-N - (HETERO)ARYL ALKYLYSOTHIOCARBAMIDES, METHOD FOR THE PRODUCTION THEREOF, PHYSIOLOGICALLY ACTIVE S-SUBSTITUTED N-1- (HETERO )ARYL ALKYL-N - (HETERO)ARYL ALKYLYSOTHIOCARBAMIDES,A PHARMACEUTICAL COMPOUND AND CURING METHOD” (Institut Fiziologicheski Aktivnykh Veschestv Rossiyskov …, priority 2002, dated 2004)", "key": {"[1]": {"test_system": "NMDA receptors", "experiment": "Patch-clamp: blockade of NMDA-induced currents in cerebral cortex neurons", "assay_type": "cell-based, rat", "conditions": "for Blockade of NMDA-induced currents (%): neurons of the cerebral cortex", "description": "(§1) The first was to determine the potentiating effect of new compounds on AMPA- and kainate-induced transmembrane currents in neurons of the Purkinje cerebellum of rats, and also blockade of NMDA-induced currents in the neurons of the cerebral cortex of rats;\n(§2) Method for assessing properties of the compounds potentiating AMPA/KA-induced currents and blocking NMDA-induced currents.\n(§3) Transmembrane currents were induced by activation of AMPA/KA receptors by applying solutions of kainic acid, the agonist of these receptors, and by activation of NMDA receptors by applying solutions of N-methyl-D-aspartic acid (NMDA), the agonist of these receptors, using the rapid superfusion method. Currents were recorded with the aid of borosilicate microelectrodes (resistance 1.5-2.5 mohm) filled with the following composition (in mM): KCl 100.0, EGTA 11.0, CaCl2 1.0, MgCl2 1.0, HEPES 10.0, ATP 5.0, pH 7.2.\n(§4) An EPC9 (HEKA, Germany) was used for recording. Currents were recorded on a Pentium-100 PC hard disc using the Pulse program, also purchased from the HEKA company. The results were processed with the aid of the Pulsefit program (HEKA)."}, "[2]": {"test_system": "AMPA/KA receptors", "experiment": "Patch-clamp: potentiation of kainate-induced transmembrane currents in freshly isolated Purkinje neurons", "assay_type": "cell-based, rat", "conditions": "for Potentiation of kainate-induced currents (%): Purkinje neurons of the rat cerebellum", "protocol": "as §1, §2\nThe experiments were performed using the patch-clamp method on freshly-isolated Purkinje neurons taken from the cerebellum of rats (aged 14-16 days). A modified method was used for isolation. Slices of cerebellum 400-600 µm in thickness were placed in a thermostat-controlled chamber with a volume of 10 ml. The solution for isolation had the following composition (in mM): NaCl 150.0, KCl 5.0, CaCl2 2.0, MgSO4×7H2O 2.0, HEPES 10.0, glucose 15.0, pH 7.42. The slices were incubated in this solution for 60 minutes, after which this solution was replaced by a similar solution containing pronase (2 mg/ml) and collagenase (1 mg/ml) and incubation was continued for 70 minutes. After washing with the original solution for 20 minutes, the slices were placed in a Petri dish and dissociated mechanically with the aid of a Pasteur pipette. The solutions were continuously bubbled with 100% O2 at t° 34°C. The Purkinje neurons were placed in a working chamber with a volume of 0.6 ml. The working solution has the composition (in mM): NaCl 150.0, KCl 5.0, CaCl2 2.6, MgSO4×7H2O 2.0, HEPES 10.0, glucose 15.0, pH 7.36.\nas §3, §4\nThe application of kainate induces inward transmembrane currents in the Purkinje neurons. Addition of the compounds to the perfusion solution elicits an increase in the amplitude of the currents. This increase depends on the compound, on its concentration, and on the time which has passed since the start of application of the substance."}}, "data": [{"smiles": "CSC(=NCc1ccccc1)NCc1ccccc1", "note": "[Compound 11, S-Methyl-N-benzyl-N'-benzylisothio-carbamide]", "values": [{"measurement": "Blockade of NMDA-induced currents (%)", "setting": "[1]; at 0.5-30 µM", "result": 0, "unit": "at 0.5-30 µM %"}, {"measurement": "Potentiation of kainate-induced currents (%)", "setting": "[2]; at 0.5-30 µM", "result": 0, "unit": "at 0.5-30 µM %"}]}, {"smiles": "CCSC(=NCc1ccccc1)NCc1ccccc1.I", "note": "[Compound 12, S-Ethyl-N-benzyl-N'-benzylisothiocarbamide hydriodide]", "values": [{"measurement": "Blockade of NMDA-induced currents (%)", "setting": "[1]; at 0.5-30 µM", "result": 0, "unit": "at 0.5-30 µM %"}, {"measurement": "Potentiation of kainate-induced currents (%)", "setting": "[2]; at 0.5-30 µM", "result": 0, "unit": "at 0.5-30 µM %"}]}, {"smiles": "c1ccc(CN=C(NCc2ccccc2)SCc2ccccc2)cc1", "note": "[Compound 13, S-Benzyl-N-benzyl-N'-benzylisothiocarbamide]", "values": [{"measurement": "Blockade of NMDA-induced currents (%)", "setting": "[1]; at 0.5-30 µM", "result": 0, "unit": "at 0.5-30 µM %"}, {"measurement": "Potentiation of kainate-induced currents (%)", "setting": "[2]; at 0.5-30 µM", "result": 0, "unit": "at 0.5-30 µM %"}]}, {"smiles": "Cl.O=[N+]([O-])c1ccc(CSC(=NCc2ccccc2)NCc2ccccc2)cc1", "note": "[Compound 14, S-4-Nitrobenzyl-N-benzyl-N'-benzylisothiocarbamide hydrochloride]", "values": [{"measurement": "Blockade of NMDA-induced currents (%)", "setting": "[1]; at 0.5-30 µM", "result": 0, "unit": "at 0.5-30 µM %"}, {"measurement": "Potentiation of kainate-induced currents (%)", "setting": "[2]; at 0.5-30 µM", "result": 0, "unit": "at 0.5-30 µM %"}]}, {"smiles": "Br.O=C(O)c1ccc(CSC(=NCc2ccccc2)NCc2ccccc2)cc1", "note": "[Compound 15, S-4-Carboxybenzyl-N-benzyl-N'-benzylisothiocarbamide hydrobromide]", "values": [{"measurement": "Blockade of NMDA-induced currents (%)", "setting": "[1]; at 0.5-30 µM", "result": 0, "unit": "at 0.5-30 µM %"}, {"measurement": "Potentiation of kainate-induced currents (%)", "setting": "[2]; at 0.5-30 µM", "result": 0, "unit": "at 0.5-30 µM %"}]}, {"smiles": "Br.C=CCSC(=NCc1ccccc1)NCc1ccccc1", "note": "[Compound 16, S-Allyl-N-benzyl-N'-benzylisothiocarbamide hydrobromide]", "values": [{"measurement": "Blockade of NMDA-induced currents (%)", "setting": "[1]; at 0.5-30 µM", "result": 0, "unit": "at 0.5-30 µM %"}, {"measurement": "Potentiation of kainate-induced currents (%)", "setting": "[2]; at 0.5-30 µM", "result": 0, "unit": "at 0.5-30 µM %"}]}, {"smiles": "Br.C1=CC(SC(=NCc2ccccc2)NCc2ccccc2)CCC1", "note": "(stereo not shown) [Compound 17, S-2-Cyclohexenyl-N-benzyl-N'-benzylisothiocarbamide hydrobromide]", "values": [{"measurement": "Blockade of NMDA-induced currents (%)", "setting": "[1]; at 0.5 µM", "result": "30-50%"}, {"measurement": "Blockade of NMDA-induced currents (%)", "setting": "[1]; at 2 µM", "result": 100, "unit": "%"}, {"measurement": "Potentiation of kainate-induced currents (%)", "setting": "[2]; at 10 µM", "result": 0, "unit": "% at 10 µM"}, {"measurement": "Potentiation of kainate-induced currents (%)", "setting": "[2]; at 0.5-1.0 µM", "result": "60-100% at 0.5-1.0 µM"}]}, {"smiles": "Br.c1ccc(CCSC(=NCc2ccccc2)NCc2ccccc2)cc1", "note": "[Compound 18, S-2-Phenylethyl-N-benzyl-N'-benzylisothiocarbamide hydrobromide]", "values": [{"measurement": "decrease in the NMDA-induced currents", "setting": "[1]; 3 µM, observed range (average given separately)", "result": "25-35%"}, {"measurement": "Washing out time that returns the amplitude of the NMDA-induced currents to the control value", "setting": "[1]; NMDA-induced currents, cerebral cortex neurons", "result": "3 to 6", "unit": "min"}, {"measurement": "Blockade of NMDA-induced currents (%)", "setting": "[1]; at 3 µM (average), hydrobromide", "result": "30% at 3 µM,"}, {"measurement": "Blockade of NMDA-induced currents (%)", "setting": "[1]; at 3 µM (average), listed as compound 18, hydrobromide", "result": 30, "unit": "%"}, {"measurement": "Blockade of NMDA-induced currents (%)", "setting": "[1]; at 10 µM, hydrobromide", "result": 100, "unit": "% at 10 µM"}, {"measurement": "Blockade of NMDA-induced currents (%)", "setting": "[1]; at 10 µM, listed as compound 18, hydrobromide", "result": 100, "unit": "%"}, {"measurement": "increase in kainate-induced currents", "setting": "[2]; 20 µM, observed range (average given separately)", "result": "8-12%"}, {"measurement": "Potentiation of kainate-induced currents (%)", "setting": "[2]; at 20 µM (average), hydrobromide", "result": 10, "unit": "% at 20 µM"}, {"measurement": "Potentiation of kainate-induced currents (%)", "setting": "[2]; at 20 µM (average), listed as compound 18, hydrobromide", "result": 10, "unit": "%"}, {"measurement": "Washing out time that returns the amplitude of the responses to the control value", "setting": "[2]; kainate-induced currents, after 20 µM", "result": "3 to 5", "unit": "min"}]}, {"smiles": "Br.CCOC(=O)CCSC(=NCc1ccccc1)NCc1ccccc1", "note": "[Compound 19, S-2-Ethoxycarbonyl-ethyl-N-benzyl-N'-benzylisothiocarbamide hydrobromide]", "values": [{"measurement": "Blockade of NMDA-induced currents (%)", "setting": "[1]; at 0.5-30 µM", "result": 0, "unit": "at 0.5-30 µM %"}, {"measurement": "Potentiation of kainate-induced currents (%)", "setting": "[2]; at 0.5-30 µM", "result": 0, "unit": "at 0.5-30 µM %"}]}, {"smiles": "NS(=O)(=O)c1cc2c(cc1Cl)NC(C1CC3C=CC1C3)NS2(=O)=O", "note": "(stereo not shown) [Cyclothiazide, reference compound]", "values": [{"measurement": "Blockade of NMDA-induced currents (%)", "setting": "[1]; at 1-30 µM", "result": 0, "unit": "at 1-30 µM %"}, {"measurement": "Potentiation of kainate-induced currents (%)", "setting": "[2]; at 1 µM", "result": 20, "unit": "% at 1 µM"}]}, {"smiles": "CC12CC3CC(C)(C1)CC(N)(C3)C2", "note": "[Memantine, reference compound]", "values": [{"measurement": "Blockade of NMDA-induced currents (%)", "setting": "[1]; at 17 µM", "result": 50, "unit": "% at 17 µM"}, {"measurement": "Potentiation of kainate-induced currents (%)", "setting": "[2]; at 30 µM", "result": 15, "unit": "% at 30 µM"}]}, {"smiles": "Nc1c2c(nc3ccccc13)CCCC2", "note": "[Tacrine, reference compound]", "values": [{"measurement": "Blockade of NMDA-induced currents (%)", "setting": "[1]; at 0.5-30 µM", "result": 0, "unit": "at 0.5-30 µM %"}, {"measurement": "Potentiation of kainate-induced currents (%)", "setting": "[2]; at 0.5-30 µM", "result": 0, "unit": "at 0.5-30 µM %"}]}]}
